From US10597388B2, “Pyridazinone herbicides” (FMC CORPORATION, priority 2014, dated 2020)

Columns and labels:
Assay type in all cases: in vivo
[1] = tested on: Italian ryegrass (Lolium multiflorum); assay: Test E greenhouse herbicide test, pre- and postemergence; details: Postemergence
From the text: (§1) Seeds of plant species selected from corn (Zea mays), soybean (Glycine max), velvetleaf (Abutilon theophrasti), lambsquarters (Chenopodium album), wild poinsettia (Euphorbia heterophylla), pigweed, palmer (palmer pigweed, Amaranthus palmeri), waterhemp (common waterhemp, Amaranthus rudis), surinam grass (Brachiaria decumbens), crabgrass, large (large crabgrass, Digitaria sanguinalis), crabgrass, Brazilian (Brazilian crabgrass, Digitaria horizontalis), panicum, fall (fall panicum, Panicum dichotomiflorum), foxtail, giant (giant foxtail, Setaria faberii), foxtail, green (green foxtail, Setaria viridis), goosegrass (Eleusine indica), johnsongrass (Sorghum halepense), ragweed (common ragweed, Ambrosia elatior), barnyardgrass (Echinochloa crus-galli), sandbur (southem sandbur, Cenchrus echinatus), arrowleaf sida (Sida rhombifolia), Italian ryegrass (Lolium multiflorum), dayflower (Virginia (VA) dayflower, Commelina virginica), field bindweed (Convolvulus arvensis), momingglory (Ipomoea coccinea), nightshade (eastern black nightshade, Solanum ptycanthum), kochia (Kochia scoparia), nutsedge, yellow (yellow nutsedge, Cyperus esculentus), horseweed (Conyza canadensis), and beggarticks (hairy beggarticks, Bidens pilosa), were planted into a silt loam soil and treated preemergence with test chemicals formulated in a non-phytotoxic solvent mixture which included a surfactant.
(§2) At the same time, plants from these crop and weed species and also waterhemp_RES1, (ALS & Triazine resistant common waterhemp, Amaranthus rudis), and waterhemp_RES2, (ALS & HPPD resistant common waterhemp, Amaranthus rudis) were planted in pots containing Redi-Earth® planting medium (Scotts Company, 14111 Scottslawn Road, Marysville, Ohio 43041) comprising spaghnum peat moss, vermiculite, wetting agent and starter nutrients were treated with postemergence applications of test chemicals formulated in the same manner. Plants ranged in height from 2 to 18 cm for postemergence treatments (1- to 4-leaf stage). Treated plants and controls were maintained in a greenhouse for 14 to 21 d, after which time all species were compared to controls and visually evaluated. Plant response ratings, summarized in Table E, are based on a scale of 0 to 100 where 0 is no effect and 100 is complete control. A dash (-) response means no test result.

[2] = tested on: barnyardgrass (Echinochloa crus-galli); assay: as above; details: Postemergence
From the text: as §1, §2

[3] = tested on: beggarticks (hairy beggarticks, Bidens pilosa); assay: as above; details: Postemergence
From the text: as §1, §2

[4] = tested on: crabgrass, Brazilian (Brazilian crabgrass, Digitaria horizontalis); assay: as above; details: Postemergence
From the text: as §1, §2

[5] = tested on: dayflower (Virginia (VA) dayflower, Commelina virginica); assay: as above; details: Postemergence
From the text: as §1, §2

[6] = tested on: horseweed (Conyza canadensis); assay: as above; details: Postemergence
From the text: as §1, §2

kochia (Kochia scoparia) = assay: as above; details: Postemergence
From the text: as §1, §2

[7] = tested on: pigweed, palmer (palmer pigweed, Amaranthus palmeri); assay: as above; details: Postemergence
From the text: as §1, §2

[8] = tested on: ragweed (common ragweed, Ambrosia elatior); assay: as above; details: Postemergence
From the text: as §1, §2

[9] = tested on: sandbur (southem sandbur, Cenchrus echinatus); assay: as above; details: Postemergence
From the text: as §1, §2

soybean (Glycine max) = assay: as above; details: Postemergence
From the text: as §1, §2

[10] = tested on: waterhemp_RES1 (ALS & Triazine resistant common waterhemp, Amaranthus rudis); assay: Test E greenhouse herbicide test, postemergence
Experimental: as §2

[11] = tested on: waterhemp_RES2 (ALS & HPPD resistant common waterhemp, Amaranthus rudis); assay: Test E greenhouse herbicide test, postemergence
Experimental: as §2

[12] = 62 g ai/ha, scale 0 to 100 (0 no effect, 100 complete control)
[13] = 125 g ai/ha, scale 0 to 100 (0 no effect, 100 complete control)
[14] = 16 g ai/ha, visual, scale 0 no effect to 100 complete control
[15] = 31 g ai/ha, visual, scale 0 no effect to 100 complete control
[16] = 250 g ai/ha, scale 0 to 100 (0 no effect, 100 complete control)

CC(=O)Oc1c(C)nn(C)c(=O)c1-c1c(C)cc(C)c2ccccc12 [Compound 99]
Plant response rating, Ryegrass, Italian [1, 12]: 70 | Plant response rating, Ryegrass, Italian [1, 13]: 80 | Plant response rating, Ryegrass, Italian [1, 14]: 40 | Plant response rating, Ryegrass, Italian [1, 15]: 50 | Plant response rating, Barnyardgrass [2, 12]: 40 | Plant response rating, Barnyardgrass [2, 13]: 50 | Plant response rating, Barnyardgrass [2, 14]: 40 | Plant response rating, Barnyardgrass [2, 15]: 30 | Plant response rating, Beggarticks [3, 12]: 100 | Plant response rating, Beggarticks [3, 13]: 95 | Plant response rating, Beggarticks [3, 14]: 70 | Plant response rating, Beggarticks [3, 15]: 80 | Plant response rating, Crabgrass, Brazil [4, 12]: 10 | Plant response rating, Crabgrass, Brazil [4, 13]: 20 | Plant response rating, Crabgrass, Brazil [4, 14]: 5 | Plant response rating, Crabgrass, Brazil [4, 15]: 10 | Plant response rating, Dayflower, VA [5, 12]: 70 | Plant response rating, Dayflower, VA [5, 13]: 75 | Plant response rating, Dayflower, VA [5, 14]: 40 | Plant response rating, Dayflower, VA [5, 15]: 60 | Plant response rating, Horseweed [6, 12]: 60 | Plant response rating, Horseweed [6, 13]: 75 | Plant response rating, Horseweed [6, 14]: 40 | Plant response rating, Horseweed [6, 15]: 50 | Plant response rating, Kochia (kochia (Kochia scoparia); [12]): 60 | Plant response rating, Kochia (kochia (Kochia scoparia); [13]): 70 | Plant response rating, Kochia (kochia (Kochia scoparia); [14]): 55 | Plant response rating, Kochia (kochia (Kochia scoparia); [15]): 50 | Plant response rating, Pigweed, Palmer [7, 12]: 30 | Plant response rating, Pigweed, Palmer [7, 13]: 50 | Plant response rating, Pigweed, Palmer [7, 14]: 5 | Plant response rating, Pigweed, Palmer [7, 15]: 10 | Plant response rating, Ragweed [8, 12]: 80 | Plant response rating, Ragweed [8, 13]: 90 | Plant response rating, Ragweed [8, 14]: 50 | Plant response rating, Ragweed [8, 15]: 75 | Plant response rating, Sandbur [9, 13]: 40 | Plant response rating, Sandbur [9, 14]: 20 | Plant response rating, Sandbur [9, 15]: 30 | Plant response rating, Soybean (soybean (Glycine max); [13]): 30 | Plant response rating, Soybean (soybean (Glycine max); [14]): 0 | Plant response rating, Soybean (soybean (Glycine max); [15]): 0 | Plant response rating, Waterhemp_RES1 [10, 14]: 50 | Plant response rating, Waterhemp_RES1 [10, 15]: 50 | Plant response rating, Waterhemp_RES1 [10, 13]: 75 | Plant response rating, Waterhemp_RES2 [11, 14]: 50 | Plant response rating, Waterhemp_RES2 [11, 15]: 50 | Plant response rating, Waterhemp_RES2 [11, 13]: 60

Cc1nn(C)c(=O)c(-c2cccc3ccc(Br)cc23)c1O [Compound 126]
Plant response rating, Ryegrass, Italian [1, 12]: 80 | Plant response rating, Ryegrass, Italian [1, 13]: 85 | Plant response rating, Ryegrass, Italian [1, 16]: 90 | Plant response rating, Ryegrass, Italian [1, 15]: 70 | Plant response rating, Barnyardgrass [2, 12]: 50 | Plant response rating, Barnyardgrass [2, 13]: 40 | Plant response rating, Barnyardgrass [2, 16]: 30 | Plant response rating, Barnyardgrass [2, 15]: 40 | Plant response rating, Beggarticks [3, 12]: 100 | Plant response rating, Beggarticks [3, 13]: 100 | Plant response rating, Beggarticks [3, 16]: 100 | Plant response rating, Beggarticks [3, 15]: 100 | Plant response rating, Crabgrass, Brazil [4, 12]: 25 | Plant response rating, Crabgrass, Brazil [4, 13]: 40 | Plant response rating, Crabgrass, Brazil [4, 16]: 50 | Plant response rating, Crabgrass, Brazil [4, 15]: 10 | Plant response rating, Dayflower, VA [5, 12]: 20 | Plant response rating, Dayflower, VA [5, 13]: 50 | Plant response rating, Dayflower, VA [5, 16]: 50 | Plant response rating, Dayflower, VA [5, 15]: 0 | Plant response rating, Horseweed [6, 12]: 75 | Plant response rating, Horseweed [6, 13]: 85 | Plant response rating, Horseweed [6, 16]: 80 | Plant response rating, Horseweed [6, 15]: 70 | Plant response rating, Kochia (kochia (Kochia scoparia); [12]): 100 | Plant response rating, Kochia (kochia (Kochia scoparia); [13]): 100 | Plant response rating, Kochia (kochia (Kochia scoparia); [16]): 100 | Plant response rating, Kochia (kochia (Kochia scoparia); [15]): 100 | Plant response rating, Pigweed, Palmer [7, 12]: 50 | Plant response rating, Pigweed, Palmer [7, 13]: 50 | Plant response rating, Pigweed, Palmer [7, 16]: 80 | Plant response rating, Pigweed, Palmer [7, 15]: 40 | Plant response rating, Ragweed [8, 12]: 80 | Plant response rating, Ragweed [8, 13]: 100 | Plant response rating, Ragweed [8, 16]: 100 | Plant response rating, Ragweed [8, 15]: 70 | Plant response rating, Sandbur [9, 13]: 40 | Plant response rating, Sandbur [9, 16]: 40 | Plant response rating, Sandbur [9, 15]: 0 | Plant response rating, Soybean (soybean (Glycine max); [13]): 40 | Plant response rating, Soybean (soybean (Glycine max); [16]): 30 | Plant response rating, Soybean (soybean (Glycine max); [15]): 10 | Plant response rating, Waterhemp_RES1 [10, 15]: 75 | Plant response rating, Waterhemp_RES1 [10, 13]: 90 | Plant response rating, Waterhemp_RES1 [10, 16]: 100 | Plant response rating, Waterhemp_RES2 [11, 15]: 55 | Plant response rating, Waterhemp_RES2 [11, 13]: 70 | Plant response rating, Waterhemp_RES2 [11, 16]: 85
